Reference: patent publication US11844793B2, “Liquid formulations of indacaterol” (AeroRx Therapeutics LLC, priority 2020, dated 2023)

Assays:
Assay type in all cases: physicochemical
[1] = Aqueous solubility of indacaterol with varying pH in citrate buffer; conditions: aqueous citrate buffer 5 mM
Protocol: Solubility studies of indacaterol in solutions of varying pH were performed using an orbital shaker method. Excess indacaterol was placed in a glass vial with an aqueous citrate buffer (5 mM; prepared from citric acid and NaOH). Samples were shaken for 12 to 24 hours to ensure equilibrium was reached before checking and adjusting the pH (using 1 M HCl and NaOH) and placing samples back into the orbital shaker for an additional 12 hours. This process was repeated up to two times or until the desired pH was obtained. After the desired pH was reached, the vial was removed from the shaker and allowed to settle for 30 minutes. Then, the sample was filtered using a 0.2 μM PVDF syringe filter; the initial 0.5 mL of filtrate was discarded. The pH was then measured and the concentration of the indacaterol was evaluated by UV-Vis.

[2] = Aqueous solubility of indacaterol and indacaterol maleate in water (orbital shaker, UV-Vis); conditions: water at pH 7.1
Protocol: Solubility studies of indacaterol and indacaterol maleate were performed using an orbital shaker method. Excess indacaterol was placed in a glass vial with water. The initial pH of the water was 7.1. Samples were shaken for 12 hours to ensure equilibrium was reached. After the 12 hour period, the vial was removed from the shaker and allowed to settle for 30 minutes. Then, the sample was filtered using a 0.2 μM polyvinylidene fluoride (PVDF) syringe filter; the initial 0.5 mL of filtrate was discarded. The pH was then measured and the concentration of the indacaterol was evaluated by UV-Vis.

[3] = Forced degradation study of indacaterol (RP-HPLC impurities); conditions: for Total Impurities (%): includes 2% process-related impurity
Protocol: A degraded sample panel was prepared to identify indacaterol degradation pathways and products. Stress conditions are outlined in Table 1.
One of 6N HCl, 6N NaOH, or 30% H2O2 (aqueous) were added to a suitable volume of 100 μg/mL indacaterol and diluted with water:methanol (50:50, v:v) to achieve a final indacaterol concentration of 10 μg/mL. Samples were stored at ambient temperature. At specified time points, acidic and basic hydrolysis (1 N HCl and 1 N NaOH, respectively) samples were neutralized (H2O2 samples were not quenched) and reversed-phase high performance liquid chromatography (RP-HPLC) was used to quantitate indacaterol impurities. All samples were diluted to 5 μg/mL prior to RP-HPLC analysis. Method parameters are outlined in Table 2.
Total impurities (process-related and product-related) of the indacaterol forced degradation study samples are presented in Table 3. Forced degradation impurity peaks were identified based on their retention time relative (RRT) to the indacaterol peak. Impurity peaks already present in the indacaterol (control group at T0; total peak area approximately 2%) were considered process-related, while additional peaks formed after the degradation were considered product-related.

In the case of `CCc1cc2c(cc1CC)CC(NC[C@H](O)c1ccc(O)c3[nH]c(=O)ccc13)C2` [Indacaterol, (R)-5-[2-(5,6-Diethylindan-2-ylamino)-1-hydroxyethyl]-8hydroxy-1H-quinolin-2-one], the “Solubility of indacaterol versus pH” value [1] is reported as “increase with decreasing pH”, the solubility in water [2] is reported as “insoluble” and the “Total Impurities (%)” value ([3]; Acidic Hydrolysis (1M HCl), 15 h, ambient temperature) is reported as 7.25%. The “Total Impurities (%)” value ([3]; Acidic Hydrolysis (1M HCl), T0) was 4.01%, the “Total Impurities (%)” value ([3]; Basic Hydrolysis (1M NaOH), 15 h, ambient temperature) was 7.69% and the “Total Impurities (%)” value ([3]; Basic Hydrolysis (1M NaOH), T0) was 3.99%. The “Total Impurities (%)” value ([3]; Control, T0) was 1.81%, the “Total Impurities (%)” value ([3]; Control, T0, listed as indacaterol) was “approximately 2%” and the “degradation of indacaterol samples in aqueous solutions over time” value ([3]; FIG. 1, forced degradation experiment) was “minimal degradation”. The “Total Impurities (%)” value ([3]; Oxidation (1.2% H2O2), 7 h) was 2.77%, the “Total Impurities (%)” value ([3]; Oxidation (1.2% H2O2), 29 h) was 8.83% and the “Total Impurities (%)” value ([3]; Oxidation (1.2% H2O2), 29 h, listed as indacaterol) was “approximately 9%”.
